Source: ChEMBL document CHEMBL5331122, “Structure-Activity Relationship Study of Antimicrobial Peptide PE2 Delivered Novel Linear Derivatives with Potential of Eradicating Biofilms and Low Incidence of Drug Resistance” (J Med Chem, 2023)
Active and inactive are the calls of the source. Where a SMILES comes first, the peptide text is derived from it. Bridges are numbered along the chain shown (N, C = ends). [ ]: non-standard residue; d: D form. The star is where a group is joined. Heptanoyl(6-Me) = CC(C)CCCCC(=O)*; dDab = NCC[C@@H](N)C(=O)O; Dab = NCC[C@H](N)C(=O)O

Experiments:
[1] = system: Klebsiella pneumoniae; assay: Antibacterial activity against Klebsiella pneumoniae ATCC 700603 infected in BALB/c mouse pneumonia model at 5 to 10 mg/kg, ip measured at 4 to 12 hrs; assay type: functional, organism-based; settings: dose 5-10 mg/kg, time 4-12 hrs
[2] = system: Staphylococcus aureus; assay: Synergistic antibacterial activity against Staphylococcus aureus ATCC 25923 incubated for 18 hrs in presence of gentamycin by checkerboard assay; assay type: functional, organism-based
[3] = system: Staphylococcus aureus; assay: Antibacterial activity against Staphylococcus aureus ATCC 25923 in presence of 10% mouse serum measured for 6 hrs; assay type: functional, organism-based
[4] = system: Cell membrane; assay: Induction of cell membrane damage in Escherichia coli ATCC 25922 at 2 times MIC after 0.5 to 2 hrs by propidium iodide staining based flow cytometer assay; assay type: subcellular; settings: time 0.5-2 hrs
[5] = system: Cell membrane; assay: Induction of outer membrane permeabilization in Escherichia coli ATCC 25922 assessed as increase in fluorescence intensity at 4 times MIC measured for 12 hrs by NPN uptake assay; assay type: subcellular
[6] = system: Cell membrane; assay: Induction of outer membrane permeabilization in Escherichia coli ATCC 25922 assessed as increase in fluorescence intensity at 2 times MIC measured for 12 hrs by NPN uptake assay; assay type: subcellular
[7] = system: Staphylococcus aureus; assay: Antibiofilm activity against Staphylococcus aureus ATCC 25923 assessed as biofilm eradication at 8 times MIC incubated for 24 hrs; assay type: functional, organism-based
[8] = system: Escherichia coli; assay: Bactericidal activity against Escherichia coli ATCC 25922 assessed as inhibition of bacterial growth at 1/2 times MIC measured at 180 mins by time-kill assay; assay type: functional, organism-based
[9] = system: Staphylococcus aureus; assay: Bactericidal activity against Staphylococcus aureus ATCC 25923 assessed as inhibition of bacterial growth incubated upto 360 mins by time-kill assay; assay type: functional, organism-based
[10] = system: Escherichia coli; assay: Bactericidal activity against Escherichia coli ATCC 25922 assessed as inhibition of bacterial growth at 1 times MIC measured at 120 mins by time-kill assay; assay type: functional, organism-based
[11] = system: Escherichia coli; assay: Bactericidal activity against Escherichia coli ATCC 25922 assessed as inhibition of bacterial growth at 0.5 to 2 times MIC by time-kill assay; assay type: functional, organism-based; settings: time <= 360.0 min, TDE = time-dependent effect
[12] = system: Staphylococcus aureus; assay: Bactericidal activity against Staphylococcus aureus ATCC 25923 assessed as inhibition of bacterial growth at 2 times MIC measured upto 360 mins by time-kill assay; assay type: functional, organism-based
[13] = system: Escherichia coli; assay: Bactericidal activity against Escherichia coli ATCC 25922 assessed as inhibition of bacterial growth incubated upto 360 mins by time-kill assay; assay type: functional, organism-based
[14] = system: Staphylococcus aureus; assay: Induction of membrane morphological changes in Staphylococcus aureus ATCC 25923 assessed as appearance of adherent bacterial cells at 4 times MIC measured at 0.5 to 2 hrs by SEM analysis; assay type: functional, organism-based; settings: time 0.5-2 hrs
[15] = system: Escherichia coli; assay: Synergistic antibacterial activity against gentamycin-resistant Escherichia coli ATCC 25922 incubated for 18 hrs by checkerboard assay; assay type: functional, organism-based
[16] = system: Staphylococcus aureus; assay: Bactericidal activity against Staphylococcus aureus ATCC 25923 assessed as inhibition of bacterial growth at 0.5 to 2 times MIC by time-kill assay; assay type: functional, organism-based; settings: time <= 360.0 min, TDE = time-dependent effect
[17] = system: Escherichia coli; assay: Antimicrobial activity against Escherichia coli ATCC 25922 assessed as reduction in microbial growth measured for 18 hrs in presence of […] microg/ml LPS; assay type: functional, organism-based
[18] = system: Escherichia coli; assay: Induction of membrane morphological changes in Escherichia coli ATCC 25922 at 4 times MIC measured at 0.5 to 2 hrs by SEM analysis; assay type: functional, organism-based; settings: time 0.5-2 hrs
[19] = system: Escherichia coli; assay: Synergistic antibacterial activity against rifampicin-resistant Escherichia coli ATCC 25922 incubated for 18 hrs by checkerboard assay; assay type: functional, organism-based
[20] = system: Escherichia coli; assay: Additive antibacterial activity against Escherichia coli ATCC 25922 assessed as bacterial growth inhibition incubated for 18 hrs in presence of rifampicin by checkerboard assay; assay type: functional, organism-based
[21] = system: Escherichia coli; assay: Inhibition of biofilm formation in Escherichia coli ATCC 25922 assessed as inhibition of biofilm formation at 1/2 times MIC incubated for 24 hrs by crystal violet staining based analysis; assay type: functional, organism-based
[22] = system: Escherichia coli; assay: Inhibition of biofilm formation in Escherichia coli ATCC 25922 assessed as inhibition of biofilm formation at 1 to 2 times MIC incubated for 24 hrs by crystal violet staining based analysis; assay type: functional, organism-based
[23] = system: Staphylococcus aureus; assay: Antibiofilm activity against Staphylococcus aureus ATCC 25923 assessed as biofilm eradication at 4 times MIC incubated for 24 hrs; assay type: functional, organism-based
[24] = system: Staphylococcus aureus; assay: Bactericidal activity against Staphylococcus aureus ATCC 25923 assessed as inhibition of bacterial growth at 2 times MIC measured at 120 mins by time-kill assay; assay type: functional, organism-based
[25] = system: Klebsiella pneumoniae; assay: Antibacterial activity against Klebsiella pneumoniae ATCC 700603 infected in BALB/c mouse pneumonia model assessed as reduction in lung bacterial load at 5 to 10 mg/kg, ip measured at 4 to 12 hrs; assay type: functional, organism-based; settings: dose 5-10 mg/kg, time 4-12 hrs
[26] = system: Staphylococcus aureus; assay: Bactericidal activity against Staphylococcus aureus ATCC 25923 assessed as inhibition of bacterial growth at 1 times MIC measured upto 360 mins by time-kill assay; assay type: functional, organism-based
[27] = system: Staphylococcus aureus; assay: Inhibition of biofilm formation in Staphylococcus aureus ATCC 25923 assessed as inhibition of biofilm formation at 1/4 times MIC incubated for 24 hrs by crystal violet staining based analysis; assay type: functional, organism-based
[28] = system: Escherichia coli; assay: Inhibition of biofilm formation in Escherichia coli ATCC 25922 assessed as inhibition of biofilm formation at 1/4 times MIC incubated for 24 hrs by crystal violet staining based analysis; assay type: functional, organism-based
[29] = system: Escherichia coli; assay: Inhibition of biofilm formation in Escherichia coli ATCC 25922 assessed as inhibition of biofilm formation incubated for 24 hrs by crystal violet staining based analysis; assay type: functional, organism-based
[30] = system: Staphylococcus aureus; assay: Additive antibacterial activity against Staphylococcus aureus ATCC 25923 assessed as bacterial growth inhibition incubated for 18 hrs in presence of gentamycin by checkerboard assay; assay type: functional, organism-based
[31] = system: Cell membrane; assay: Induction of outer membrane permeabilization in Escherichia coli ATCC 25922 assessed as increase in fluorescence intensity at 1 to 4 times MIC measured for 12 hrs by NPN uptake assay; assay type: subcellular
[32] = system: Staphylococcus aureus; assay: Induction of membrane morphological changes in Staphylococcus aureus ATCC 25923 assessed as appearance of blistered bacterial cells at 4 times MIC measured at 0.5 to 2 hrs by SEM analysis; assay type: functional, organism-based; settings: time 0.5-2 hrs
[33] = system: Staphylococcus aureus; assay: Inhibition of biofilm formation in Staphylococcus aureus ATCC 25923 assessed as inhibition of biofilm formation at 1/2 times MIC incubated for 24 hrs by crystal violet staining based analysis; assay type: functional, organism-based
[34] = system: Escherichia coli; assay: Antimicrobial activity against Escherichia coli ATCC 25922 assessed as reduction in microbial growth measured for 18 hrs in presence of 512 microg/ml LPS; assay type: functional, organism-based
[35] = system: Staphylococcus aureus; assay: Additive antibacterial activity against Staphylococcus aureus ATCC 25923 assessed as bacterial growth inhibition incubated for 18 hrs in presence of rifampicin by checkerboard assay; assay type: functional, organism-based
[36] = system: Cell membrane; assay: Induction of cell membrane damage in Staphylococcus aureus ATCC 25923 at 2 times MIC after 0.5 to 2 hrs by propidium iodide staining based flow cytometer assay; assay type: subcellular; settings: time 0.5-2 hrs
[37] = system: Escherichia coli; assay: Bactericidal activity against Escherichia coli ATCC 25922 assessed as inhibition of bacterial growth at 0.5 to 2 times MIC measured at 90 mins by time-kill assay; assay type: functional, organism-based
[38] = system: Staphylococcus aureus; assay: Induction of drug resistance against Staphylococcus aureus ATCC 25923 measured upto 15 passages by sequential passaging method; assay type: functional
[39] = system: Cell membrane; assay: Induction of cell membrane damage in Staphylococcus aureus ATCC 25923 at 2 times MIC measured at 30 mins by propidium iodide staining based flow cytometer assay; assay type: subcellular
[40] = system: Staphylococcus aureus; assay: Bactericidal activity against Staphylococcus aureus ATCC 25923 assessed as inhibition of bacterial growth at 1/2 times MIC measured upto 360 mins by time-kill assay; assay type: functional, organism-based
[41] = system: Staphylococcus aureus; assay: Induction of membrane morphological changes in Staphylococcus aureus ATCC 25923 assessed as appearance of broken bacterial cells at 4 times MIC measured at 0.5 to 2 hrs by SEM analysis; assay type: functional, organism-based; settings: time 0.5-2 hrs
[42] = system: Staphylococcus aureus; assay: Antibiofilm activity against Staphylococcus aureus ATCC 25923 assessed as biofilm eradication at 1 times MIC incubated for 24 hrs; assay type: functional, organism-based
[43] = system: Cell membrane; assay: Induction of inner membrane permeabilization in Escherichia coli ML-35 ATCC 43837 assessed as increase in fluorescence intensity at 1 to 4 times MIC incubated upto 150 mins by ONPG staining based analysis; assay type: subcellular
[44] = system: Staphylococcus aureus; assay: Induction of membrane morphological changes in Staphylococcus aureus ATCC 25923 at 4 times MIC measured at 0.5 to 2 hrs by SEM analysis; assay type: functional, organism-based; settings: time 0.5-2 hrs
[45] = system: Staphylococcus aureus; assay: Synergistic antibacterial activity against Staphylococcus aureus ATCC 25923 incubated for 18 hrs in presence of rifampicin by checkerboard assay; assay type: functional, organism-based
[46] = system: Escherichia coli; assay: Additive antibacterial activity against Escherichia coli ATCC 25922 assessed as bacterial growth inhibition incubated for 18 hrs in presence of gentamycin by checkerboard assay; assay type: functional, organism-based
[47] = system: Escherichia coli; assay: Bactericidal activity against Escherichia coli ATCC 25922 assessed as inhibition of bacterial growth at 2 times MIC measured upto 360 mins by time-kill assay; assay type: functional, organism-based
[48] = system: Escherichia coli; assay: Antibacterial activity against Escherichia coli ATCC 25922 in presence of 10% mouse serum measured for 6 hrs; assay type: functional, organism-based
[49] = system: Staphylococcus aureus; assay: Inhibition of biofilm formation in Staphylococcus aureus ATCC 25923 assessed as inhibition of biofilm formation at 1 times MIC incubated for 24 hrs by crystal violet staining based analysis; assay type: functional, organism-based
[50] = system: Erythrocyte; assay: Hemolytic activity in mouse red blood cell assessed as hemolysis incubated for 1 hr; assay type: toxicity, cell-based; settings: dose 4-256 µg/ml
[51] = Acute toxicity in Kunming mouse assessed as survival rate at 31.7 mg/kg, ip measured after 2 hrs; assay type: organism-based; settings: in vivo
[52] = Acute toxicity in ip dosed Kunming mouse assessed as lethal dose measured upto 7 days; assay type: organism-based; settings: Kunming, in vivo, time < 7 day
[53] = Acute toxicity in Kunming mouse assessed as survival rate at 20 mg/kg, ip measured for 7 days; assay type: organism-based; settings: in vivo, 168 h, time 7 day
[54] = Acute toxicity in Kunming mouse assessed as survival rate at 20 to 31.7 mg/kg, ip measured at 2 hrs; assay type: organism-based; settings: in vivo, dose 20-31.7 mg/kg

CC(C)CCCCC(=O)N[C@@H](CCN)C(=O)N[C@H](C(=O)N[C@@H](CCN)C(=O)N[C@H]1CCNC(=O)[C@H]([C@@H](C)O)NC(=O)[C@H](CCN)NC(=O)[C@H](CCN)NC(=O)[C@H](CC(C)C)NC(=O)[C@@H](Cc2ccccc2)NC(=O)[C@@H](CCN)NC1=O)[C@@H](C)O ({Heptanoyl(6-Me)}-[Dab]T[Dab][Dab][dDab][dF]L[Dab][Dab]T; lactam 4-C)
active: Activity [1] | Activity [2] | Activity [3] | Activity [4] | Activity [5] | Activity [6] | Activity [7] | Activity [8] | Activity [9] Dose-Dependent Effect | Activity [10] | Activity [11] Tde | Activity [12] | Activity [13] Dose-Dependent Effect | Activity [14] | Activity [15] | Activity [16] Tde | Activity [17] | Activity [18] | Activity [19] | Activity [20] | inhibition [22] | Activity [23] | Activity [24] | Activity [25] | inhibition [27] | inhibition [28] | inhibition [29] Dose-Dependent Effect | Activity [30] | Activity [31] | Activity [32] | inhibition [33] | Activity [35] | Activity [36] | Activity [37] | Activity [38] | Activity [41] | Activity [43] | Activity [44] | Activity [45] | Activity [46] | Activity [47] | Activity [48]
inactive: inhibition [21] | Activity [26] | Activity [34] | Activity [39] | Activity [40] | Activity [42] | inhibition [49]

CC(C)CCCCC(=O)N[C@@H](CCN)C(=O)N[C@H](C(=O)N[C@@H](CCN)C(=O)N[C@H]1CCNC(=O)[C@H]([C@@H](C)O)NC(=O)[C@H](CCN)NC(=O)[C@H](CCN)NC(=O)[C@H](CC(C)C)NC(=O)[C@@H](Cc2ccccc2)NC(=O)[C@H](CCN)NC1=O)[C@@H](C)O ({Heptanoyl(6-Me)}-[Dab]T[Dab][Dab][Dab][dF]L[Dab][Dab]T; lactam 4-C)
26.7 mg/kg: LD50 at 168 h [52]
512 µg/mL: HC10 [50]
Toxic: Activity [51] | Activity [54]
Non-Toxic: Activity [53]
